Where “and” joins values, the source holds several entries; their conditions need not be identical. Equal values may be shown once.
Columns and labels:
[1] = Intrinsic dissolution rate; format: physicochemical; conditions: final product of the synthesis, amorphous powder
[2] = BET active (specific) surface area analysis, nitrogen adsorbate; format: physicochemical; conditions: for Specific surface area: final product of the synthesis, amorphous powder dried under vacuum at 25-30° C.; for Surface area of the sample: after one blending with water and acetone mixture and drying under vacuum at 50-55° C.
Experimental: The analysis of BET is according to the method described as: out gassing a portion of the test sample, about 100 mg at 90° C. for 1 hour at ambient pressure using nitrogen as the adsorbate gas.

Ferric Citrate [Example V]
Intrinsic dissolution rate [1]: 0.31 mg/sq.cm/min | Specific surface area [2]: 7.8 sq.m/g

Ferric Citrate [Example II]
Specific surface area [2]: 10.6 sq.m/g

Ferric Citrate [Example IV]
Intrinsic dissolution rate [1]: 0.231 mg/sq.cm/min | Specific surface area [2]: 11.0 sq.m/g

O=C([O-])CC(O)(CC(=O)[O-])C(=O)[O-].[Fe+3] [Ferric Citrate, Iron (III) 2-hydroxypropane-1,2,3-tricarboxylate, reference compound]
surface area ([2]; starting Ferric Citrate before treatment with water and acetone mixture): 30.0 Sq.m/g and 28.6 Sq.m/g

Ferric Citrate [Example III]
Specific surface area [2]: 12.0 sq.m/g

Ferric Citrate [Example VII]
Surface area of the sample [2]: 20.0 sq.m/g | surface area ([2]; after repeating the same water and acetone process): 12.5 sq.m/g

Ferric Citrate [Example I]
Specific surface area [2]: 12.36 sq.m/g

Ferric Citrate [Example VI]
Surface area of the sample [2]: 10.3 sq.m/g
